Read-outs that look alike come from different tables or passages of the source.
Molecular target: T1, F508delCFTR (Homo sapiens, UniProt P13569, DEL508-508)
T1 construct: expressed in transfected cells; host or cells: CFBE41o- human lung-derived epithelial cells (CFBE4lo-F508delCFTR-HRP), doxycycline-inducible
Test: Cell Surface Expression-Horse Radish Peroxidase (CSE-HRP) Assay;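 as to Maximum % activity (with co-corrector): co-corrector and positive control are both the same reference corrector at 2 µM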;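 as to Maximum % activity (without co-corrector): percent of the 2 µM on-plate positive control corrector response above DMSO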
Format: cell-based
Conditions: for Emax: read-out: Maximum % activity (without co-corrector)
Method: Cell Surface Expression-Horse Radish Peroxidase (CSE-HRP) Assay;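 as to Maximum % activity (with co-corrector): co-corrector and positive control are both the same reference corrector at 2 µM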;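 as to Maximum % activity (without co-corrector): percent of the 2 µM on-plate positive control corrector response above DMSO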
The development was achieved by expressing the F508delCFTR mutation along with a horseradish peroxidase (HRP) in the fourth exofacial loop, and then measuring the HRP activity using luminescence readout from these cells, CFBE4lo-F508delCFTR-HRP, that were incubated overnight with the test corrector compounds, either without or with the co-corrector. […] The test compounds were then added either without or with a co-corrector at the required concentrations and further incubated for 18-24 hours at 33° C. The highest concentration tested was 20 μM with an 8-point concentration response curve using a 3-fold dilution in both the test compound without or with the co-corrector. Three replicate plates were run to determine one EC50. All plates contained negative controls (dimethyl sulfoxide, DMSO) and positive control (2 μM of 3-[(2R,4R)-4-({[1-(2,2-difluoro-1,3-benzodioxol-5-yl)cyclopropyl]carbonyl}amino)-7-methoxy-3,4-dihydro-2H-chromen-2-yl]benzoic acid) as well as on-plate concentration response of the positive control. […] The raw counts from the experiment were analyzed using Accelrys® Assay Explorer v3.3.
1−[3*SDPositive Control+3*SDNegative Control/Absolute(MeanPositive Control−MeanNegative Control)]
wherein “SD” is standard deviation.
The % activity measured at each of the 8 test concentrations of the test compound added either without or with a co-corrector (2 μM of 3-[(2R,4R)-4-({[1-(2,2-difluoro-1,3-benzodioxol-5-yl)cyclopropyl]carbonyl}amino)-7-methoxy-3,4-dihydro-2H-chromen-2-yl]benzoic acid) was normalized to the on-plate positive control using the following formulae:
% activity(Test compound without co-corrector)=[(test compound without co-corrector response−DMSO response)/(positive control response−DMSO response)]*100
% activity(Test compound with co-corrector)=[(test compound with co-corrector response−DMSO response)/(positive control response−DMSO response)]*100
The maximum % activity achieved for the test compound either without or with a co-corrector at any tested concentration is presented in Table 4 along with the respective EC50's calculated using the following general sigmoidal curve with variable Hill slope equation (described as Model 42 in the Accelrys® Assay Explorer v3.3 software):
General sigmoidal curve with concentration, response, top, bottom, EC50 and Hill slope. This model describes a sigmoidal curve with an adjustable baseline, a. The equation can be used to fit curves where response is either increasing or decreasing with respect to the independent variable, “x”.
“x” is a concentration of drug under test. “y” is the response. “a” is the maximum response, and “d” is the minimum response “c” is the inflection point (EC50) for the curve. That is, “y” is halfway between the lower and upper asymptotes when x=c. “b” is the slope-factor or Hill coefficient. The sign of b is positive when the response increases with increasing dose and is negative when the response decreases with increasing dose (inhibition).

[1] = test compound without co-corrector, maximum at any tested concentration, normalized to on-plate positive control
[2] = test compound without co-corrector, read-out: EC50 (without co-corrector)
[3] = with co-corrector (2 μM of 3-[(2R,4R)-4-({[1-(2,2-difluoro-1,3-benzodioxol-5-yl)cyclopropyl]carbonyl}amino)-7-methoxy-3,4-dihydro-2H-chromen-2-yl]benzoic acid), maximum at any tested concentration, normalized to on-plate positive control
[4] = with co-corrector (2 μM of 3-[(2R,4R)-4-({[1-(2,2-difluoro-1,3-benzodioxol-5-yl)cyclopropyl]carbonyl}amino)-7-methoxy-3,4-dihydro-2H-chromen-2-yl]benzoic acid), read-out: EC50 (with co-corrector)
[5] = CSE-HRP, test compound without co-corrector, read-out: EC50 (without co-corrector)
[6] = CSE-HRP, with co-corrector (2 μM of 3-[(2R,4R)-4-({[1-(2,2-difluoro-1,3-benzodioxol-5-yl)cyclopropyl]carbonyl}amino)-7-methoxy-3,4-dihydro-2H-chromen-2-yl]benzoic acid), read-out: EC50 (with co-corrector)
[7] = CSE-HRP, with co-corrector (2 μM), maximum at any tested concentration, normalized to on-plate positive control
[8] = CSE-HRP, without co-corrector, maximum at any tested concentration, normalized to on-plate positive control
[9] = with co-corrector (2 μM), maximum at any tested concentration, normalized to on-plate positive control
[10] = without co-corrector, maximum at any tested concentration, normalized to on-plate positive control

T1 sequence (P13569 with tags, fused parts or gaps DEL508-508): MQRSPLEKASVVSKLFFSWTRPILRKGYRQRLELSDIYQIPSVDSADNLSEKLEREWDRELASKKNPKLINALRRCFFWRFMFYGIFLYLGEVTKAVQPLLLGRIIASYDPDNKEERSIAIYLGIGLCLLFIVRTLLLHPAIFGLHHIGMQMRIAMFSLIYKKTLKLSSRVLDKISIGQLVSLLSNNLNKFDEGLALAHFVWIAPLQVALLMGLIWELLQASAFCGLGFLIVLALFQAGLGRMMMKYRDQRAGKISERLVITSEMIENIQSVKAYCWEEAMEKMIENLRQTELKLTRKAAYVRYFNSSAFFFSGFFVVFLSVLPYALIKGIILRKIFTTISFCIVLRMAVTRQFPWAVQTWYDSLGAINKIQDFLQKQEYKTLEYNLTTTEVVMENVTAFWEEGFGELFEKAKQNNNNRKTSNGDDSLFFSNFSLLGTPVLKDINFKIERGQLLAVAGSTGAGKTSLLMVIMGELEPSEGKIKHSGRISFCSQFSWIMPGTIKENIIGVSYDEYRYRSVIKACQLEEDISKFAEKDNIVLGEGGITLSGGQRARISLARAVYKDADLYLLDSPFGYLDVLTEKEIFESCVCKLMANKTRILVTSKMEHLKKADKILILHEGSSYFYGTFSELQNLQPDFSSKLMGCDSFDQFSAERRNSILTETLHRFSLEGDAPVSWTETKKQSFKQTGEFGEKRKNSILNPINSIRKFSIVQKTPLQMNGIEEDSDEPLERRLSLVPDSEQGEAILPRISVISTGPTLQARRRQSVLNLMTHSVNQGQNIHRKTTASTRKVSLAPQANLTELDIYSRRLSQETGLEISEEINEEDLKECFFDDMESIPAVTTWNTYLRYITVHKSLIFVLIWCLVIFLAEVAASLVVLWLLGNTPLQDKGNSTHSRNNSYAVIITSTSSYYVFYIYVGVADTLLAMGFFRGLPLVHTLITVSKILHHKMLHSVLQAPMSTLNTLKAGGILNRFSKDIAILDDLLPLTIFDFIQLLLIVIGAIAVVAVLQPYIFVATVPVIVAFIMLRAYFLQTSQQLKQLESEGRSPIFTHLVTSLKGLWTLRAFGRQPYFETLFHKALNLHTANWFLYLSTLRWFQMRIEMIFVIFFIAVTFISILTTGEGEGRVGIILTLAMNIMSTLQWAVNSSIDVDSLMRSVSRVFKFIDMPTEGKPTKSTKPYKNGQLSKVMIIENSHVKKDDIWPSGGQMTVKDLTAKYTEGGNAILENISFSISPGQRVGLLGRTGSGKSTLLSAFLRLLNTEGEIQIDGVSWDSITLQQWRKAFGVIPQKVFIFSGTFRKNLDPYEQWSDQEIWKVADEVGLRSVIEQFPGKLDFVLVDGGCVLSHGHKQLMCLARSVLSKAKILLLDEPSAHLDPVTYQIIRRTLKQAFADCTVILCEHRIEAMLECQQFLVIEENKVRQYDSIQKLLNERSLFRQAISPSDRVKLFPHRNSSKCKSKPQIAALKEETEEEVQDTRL

Emax [1] [%] | EC50 [2] [nM] | Maximum % activity (with co-corrector) [3] | EC50 [4] [nM] | EC50 [5] [nM] | EC50 [6] [nM] | Maximum % activity (with co-corrector) [7] | Emax [8] [%] | Maximum % activity (with co-corrector) [9] | Emax [10] [%] | Maximum % activity (without co-corrector) [8] | SMILES
100 to 200 | < 1000 | +++ (≥350) | < 1000 | – | – | – | – | – | – | – | COc1ccc(C(C)(C)C)cc1CN[C@H]1[C@H](C(C)(C)C)[C@@H](C(=O)O)N(C(=O)[C@@H]2[C@@H](C(F)(F)F)[C@@H]3CC[C@H]2O3)[C@H]1c1ccccc1OC(F)F (relative stereo) [II-507]
– | – | – | – | < 1000 | < 1000 | +++ (≥350) | 100 to 200 | – | – | – | COc1ccc(C(C)(C)C)cc1CN[C@H]1[C@H](C(C)(C)C)[C@@H](C(=O)O)N(C(=O)c2cc(-c3ccccc3)nn2C)[C@H]1c1ccccc1 [II-226]
– | – | – | – | 1000 to 10000 | 1000 to 10000 | +++ (≥350) | 100 to 200 | – | – | – | COc1ccc(-c2cncc(F)c2)cc1CN[C@H]1[C@H](C(C)(C)C)[C@@H](C(=O)O)N(C(=O)C2CCCCC2)[C@H]1c1ccccc1 [II-287]
– | – | – | – | 1000 to 10000 | < 1000 | +++ (≥350) | – | – | – | +++ (≥200) | COc1ccc(C(C)(C)C)cc1CN[C@H]1[C@H](C(C)(C)C)[C@@H](C(=O)O)N(C(=O)C(OC)c2cccc(Cl)c2)[C@H]1c1ccccc1 (single isomer, unassigned) [II-271]
> 200 | 1000 to 10000 | +++ (≥350) | 1000 to 10000 | – | – | – | – | – | – | – | COc1ncc(C(F)(F)F)cc1CN[C@H]1[C@H](C(C)(C)C)[C@@H](C(=O)O)N(C(=O)OC(C)C)[C@H]1c1cccnc1N1CCC1 [II-592]
100 to 200 | 1000 to 10000 | – | < 1000 | – | – | – | – | +++ (≥350) | – | – | COc1ccc(C(C)(C)C)cc1CN[C@H]1[C@H](C(C)(C)C)[C@@H](C(=O)O)N(C(=O)Cc2ccc(Cl)cc2)[C@H]1c1ccccc1 [III-166]
< 100 | 1000 to 10000 | – | 1000 to 10000 | – | – | – | – | ++ (≥150 and <350) | – | – | COc1ccc(C(C)(C)C)cc1CN[C@H]1[C@H](C(C)(C)C)[C@@](C)(C(=O)O)N(C(=O)[C@H](OC)c2ccccc2)[C@H]1c1ccccc1 [III-215]
– | – | – | – | 1000 to 10000 | 1000 to 10000 | +++ (≥350) | < 100 | – | – | – | Cc1ccc(C)c(CN[C@H]2[C@H](C(C)(C)C)[C@@H](C(=O)O)N(C(=O)C3CCCCC3)[C@H]2c2ccccc2)c1 [II-117]
– | – | – | – | 1000 to 10000 | 1000 to 10000 | +++ (≥350) | > 200 | – | – | – | COc1cc(Cl)ccc1CN[C@H]1[C@H](C(C)(C)C)[C@@H](C(=O)O)N(C(=O)[C@H](OC)c2ccccc2)[C@H]1c1ccccc1 (relative stereo) [II-54]
– | – | – | – | 1000 to 10000 | 1000 to 10000 | ++ (≥150 and <350) | < 100 | – | – | – | COc1ccc(C(C)(C)C)cc1CN[C@H]1[C@H](C(C)(C)C)[C@@H](C(=O)O)N(C(=O)CN2CCCC2)[C@H]1c1ccccc1 [II-187]
> 200 | < 1000 | – | < 1000 | – | – | – | – | +++ (≥350) | – | – | COc1ccc(C(C)(C)C)cc1CN[C@H]1[C@H](C(C)(C)C)[C@@H](C(=O)O)N(C(=O)C2CCCC2(C)C)[C@H]1c1ccccc1 (some centres unmarked) [III-204]
– | – | – | – | 1000 to 10000 | 1000 to 10000 | +++ (≥350) | 100 to 200 | – | – | – | COc1ccc(C(C)(C)C)cc1CN[C@H]1[C@H](C(C)(C)C)[C@@H](C(=O)O)N(C(=O)c2cccc(Cn3cncn3)c2)[C@H]1c1ccccc1 [II-225]
> 200 | 1000 to 10000 | +++ (≥350) | < 1000 | – | – | – | – | – | – | – | COc1ccc(C2(C)CCC2)cc1CN[C@H]1[C@H](C(C)(C)C)[C@@H](C(=O)O)N(C(=O)[C@@H]2CCCO2)[C@H]1c1ccccc1C [II-578]
> 200 | < 1000 | +++ (≥350) | < 1000 | – | – | – | – | – | – | – | COc1ccc(C(C)(C)C)cc1CN[C@H]1[C@H](C(C)(C)C)[C@@H](C(=O)O)N(C(=O)OCC(C)(C)C)[C@H]1c1ccccc1 [II-392]
> 200 | 1000 to 10000 | +++ (≥350) | < 1000 | – | – | – | – | – | – | – | COc1ncc(C(F)(F)F)cc1CN[C@H]1[C@H](C(C)(C)C)[C@@H](C(=O)O)N(C(=O)C2CCOCC2)[C@H]1c1ccccc1C(C)C [II-591]

The next lines start with the molecule.

SMILES | Emax [1] [%] | EC50 [2] [nM] | Maximum % activity (with co-corrector) [3] | EC50 [4] [nM] | EC50 [5] [nM] | EC50 [6] [nM] | Maximum % activity (with co-corrector) [7] | Emax [8] [%] | Maximum % activity (with co-corrector) [9] | Emax [10] [%] | Maximum % activity (without co-corrector) [8]
COc1ccc(C(F)(F)F)cc1CN[C@H]1[C@H](C(C)(C)C)[C@@H](C(=O)O)N(C(=O)[C@@H]2CCCC(F)(F)C2)[C@H]1c1ccccc1 [Example I-124] | – | 1000 to 10000 | – | 1000 to 10000 | – | – | – | – | +++ (≥350) | < 100 | –
COc1nc(C2CCC2)ccc1CN[C@H]1[C@H](C(C)(C)C)[C@@H](C(=O)O)N(C(=O)C2CCCCC2)[C@H]1c1ccccc1 [Example I-242] | – | 1000 to 10000 | – | 1000 to 10000 | – | – | – | – | +++ (≥350) | 100 to 200 | –
COc1cc(C(F)(F)F)ccc1CN[C@H]1[C@H](C(C)(C)C)[C@@H](C(=O)O)N(C(=O)C2CCCCC2)[C@H]1c1ccccc1C [Example 88, (2S,3S,4S,5S)-3-tert-butyl-1-(cyclohexanecarbonyl)-4-({[2-methoxy-4-(trifluoromethyl)phenyl]methyl}amino)-5-(2-methylphenyl)pyrrolidine-2-carboxylic acid] | – | < 1000 | – | < 1000 | – | – | – | – | +++ (≥350) | > 200 | –
COc1ncc(C2CCC2)cc1CN[C@H]1[C@H](C(C)(C)C)[C@@H](C(=O)O)N(C(=O)C2CCCCC2)[C@H]1c1ccccc1C(C)C [Example 117, (2S,3S,4S,5S)-3-tert-butyl-4-{[(5-cyclobutyl-2-methoxypyridin-3-yl)methyl]amino}-1-(cyclohexanecarbonyl)-5-[2-(propan-2-yl)phenyl]pyrrolidine-2-carboxylic acid] | – | < 1000 | – | < 1000 | – | – | – | – | +++ (≥350) | > 200 | –
COc1ccc(C(F)(F)F)cc1CN[C@@H]1[C@@H](C(C)(C)C)[C@H](C(=O)O)N(C(=O)C2CCCCC2)[C@@H]1c1ccccc1N(C)C (racemic) [Example I-22] | – | 1000 to 10000 | – | < 1000 | – | – | – | – | +++ (≥350) | > 200 | –
COc1ccc(C2(C)CCC2)cc1CN[C@H]1[C@H](C(C)(C)C)[C@@H](C(=O)O)N(C(=O)[C@@H]2CCCO2)[C@H]1c1cccnc1N(C)C [Example I-283] | – | – | – | – | 1000 to 10000 | 1000 to 10000 | +++ (≥350) | > 200 | – | – | –
COc1ccc(C(C)(C)C)cc1CN[C@H]1[C@H](C(C)(C)C)[C@@H](C(=O)O)N(C(=O)c2cnn(C(C)(C)C)c2C(C)C)[C@H]1c1ccccc1 [Example I-145] | – | 1000 to 10000 | – | 1000 to 10000 | – | – | – | – | +++ (≥350) | 100 to 200 | –
COc1ccc(C(C)(C)C)cc1CN[C@H]1[C@H](C(C)(C)C)[C@@H](C(=O)O)N(C(=O)[C@@H](C)[C@@H]2CCCCO2)[C@H]1c1ccccc1 (relative stereo) [Example I-195] | – | 1000 to 10000 | – | 1000 to 10000 | – | – | – | – | +++ (≥350) | > 200 | –

Reference: patent US20180099931A1 (AbbVie S.à.r.l., priority 2016, published 2018)
